Like-named read-outs stand apart in the source and are kept apart here.
Legend:
LasR [1] = molecular target: T1, LasR (Pseudomonas aeruginosa, UniProt P25084); assay: LasR antagonism assay, E. coli DH5α (pJN105L+pSC11) β-galactosidase reporter strain; type: cell-based, P. aeruginosa
T1 construct: expressed in transfected cells; host or cells: Escherichia coli DH5α (pJN105L+pSC11)
Experimental: (§1) FIG. 5B is a bar graph showing the results of […] assay for initial heterocyclic and carbocyclic library (Scheme 1) shown as a percent of the positive control. Antagonism positive control (Pos)=activity of the reporter strain in the absence of synthetic ligand at the EC50 value for the strain. […] Negative control (Neg)=bacteria in the absence of natural and synthetic ligand. Error bars=standard deviation of the mean of triplicate samples.
(§2) The initial library was tested for LasR agonistic and antagonistic activity in two strains: Escherichia coli DH5α (pJN105L+pSC11) [Lee, J. H.; Lequette, Y.; Greenberg, E. P., Activity of purified QscR, a Pseudomonas aeruginosa orphan quorum-sensing transcription factor. Mol. Microbiol. 2006, 59 (2), 602-609] and P. aeruginosa PA01 MW1 (pUM15) [Muh, U.; Schuster, M.; Heim, R.; Singh, A.; Olson, E.; Greenberg, E. P., Novel Pseudomonas aeruginosa Quorum-Sensing Inhibitors Identified in an Ultra-High-Throughput Screen. Antimicrob. Agents Chemother. 2006, 50, 3674-3679] (FIGS. 5A and 5B). Both strains allow for synthetic autoinducer mimic evaluation and contain a reporter gene that allows for a quantitative readout of QS activity. DH5α (pJN105L+pSC11) is a heterologous β-galactosidase E. coli reporter strain containing a plasmid for the P. aeruginosa LasR gene. The PA01 MW1 (pUM15) strain uses the natural P. aeruginosa background containing a LasI deletion and the gene for yellow fluorescent protein (YFP) under the control of the LasI promoter to evaluate the LasI/R activity. Since the PA01 MW1 (pUM15) strain evaluates LasR in the natural P. aeruginosa background, in contrast to the heterologous E. coli strain, an improved idea of the interplay between the isolated LasI/R system and the combination of LasI/R with other QS subsystems such as QscR can be determined. Furthermore, additional nuances of the natural system such as compound permeability are incorporated in assays using the PA01 MW1 (pUM15) strain.

LuxR [2] = molecular target: T2, LuxR (Aliivibrio fischeri, UniProt P35327); assay: cell-based; type: cell-based, Vibrio fischeri; design: The initial library was also tested in Vibrio fischeri ESI 114 (Δ-LuxI); endogenous in cells; host or cells: Vibrio fischeri ESI 114 (Δ-LuxI); settings: for IC50: dose response
T2 sequence (P35327 whole entry): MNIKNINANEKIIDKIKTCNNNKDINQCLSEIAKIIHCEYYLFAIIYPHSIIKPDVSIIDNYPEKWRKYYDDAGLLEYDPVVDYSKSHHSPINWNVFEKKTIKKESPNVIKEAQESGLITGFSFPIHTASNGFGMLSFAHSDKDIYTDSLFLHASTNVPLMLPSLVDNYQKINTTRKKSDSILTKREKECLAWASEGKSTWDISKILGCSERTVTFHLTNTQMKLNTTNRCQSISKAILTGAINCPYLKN
Experimental: (§3) The initial library was also tested in Vibrio fischeri ESI 114 (Δ-LuxI) [Lupp, C.; Urbanowski, M.; Greenberg, E. P.; Ruby, E. G., The Vibrio fischeri quorum-sensing systems ain and lux sequentially induce luminescence gene expression and are important for persistence in the squid host. Mol. Microbiol. 2003, 50 (1), 319-331] and Agrobacterium tumefaciens WCF (pCF372). […] J. Bacteriol. 1998, 180 (20), 5398-5405.] […] [Geske, G. D.; O'Neill, J. C.; Miller, D. M.; Mattmann, M. E.; Blackwell, H. E., Modulation of Bacterial Quorum Sensing: Systematic Evaluation of N-Acylated Homoserine Lactones in Multiple Species and New Insights into Their Mechanism of Action. J. Am. Chem. Soc. 2007, 129, 13613-13625.]

LuxR [3] = molecular target: T2, LuxR; settings: initial library (FIG. 4); V. fischeri ESI 114 (Δ-LuxI)
Experimental: as §3

LasR [4] = molecular target: T1, LasR; assay: LasR antagonism assay, P. aeruginosa PA01 MW1 (pUM15) YFP reporter strain; type: cell-based; settings: initial library (FIG. 4); P. aeruginosa PA01 MW1; negative values indicate agonist properties
Experimental: as §1, §2

LasR [5] = molecular target: T1, LasR; assay: LasR agonism assay, E. coli DH5α (pJN105L+pSC11) β-galactosidase reporter strain; type: cell-based, P. aeruginosa; settings: for Act %: thiolactone libraries, E. coli, synthetic ligands tested at 10 μM
Experimental: (§4) The black bars are DH5α (pJN105L+pSC11) and the grey bars are PA01 MW1 (pUM15). Agonism positive control=activity of the reporter strain at full turn on for the strain. […] Negative control (Neg)=bacteria in the absence of natural and synthetic ligand. Error bars=standard deviation of the mean of triplicate samples.
as §2

LasR [6] = molecular target: T1, LasR; assay: LasR agonism assay, P. aeruginosa PA01 MW1 (pUM15) YFP reporter strain; type: cell-based; settings: for Act %: thiolactone libraries, P. aeruginosa, synthetic ligands tested at 10 μM
Experimental: as §4, §2

[7] = Functional half-life of autoinducers: ligand pre-incubated in media, then PA01 MW1 (pUM15) agonism readout; type: cell-based, P. aeruginosa; settings: ligand incubated in media with antibiotics at 37° C.; pseudo first order, t1/2=ln(2)/slope
Experimental: [Glansdorp, F. G.; Thomas, G. L.; Lee, J. K.; Dutton, J. M.; Salmond, G. P. C.; Welch, M.; Spring, D. R., Synthesis and stability of small molecule probes for Pseudomonas aeruginosa quorum sensing modulation. Org. Biomol. Chem. 2004, 2, 3329-3336.] […] In these cases the results were determined by NMR experiments conducted in deuterated buffers. […] Unfortunately, the use of high levels of DMSO reduces the biological relevance of the assay because large concentrations of DMSO cannot be tolerated by biological systems. Furthermore, the required concentrations of ligand are lower in a biologically based functional assay than in an NMR experiment because YFP production is much more sensitive than NMR, which requires relatively high concentrations.
In this assay, media, ligand, and antibiotics are prepared in Teflon-capped vials and allowed to incubate at 37° C. for predetermined times. P. aeruginosa cells from the strain PA01 MW1 (pUM15) were cultured overnight. These cells were then pelleted and washed with LB containing 50 mM MOPS. […] The 96 well plate was incubated for 8 hours and then analyzed for optical density and YFP fluorescence. […] Fluorescence was normalized to cell density and time points were analyzed as a percentage of the ability of the freshly prepared natural ligand to agonize the P. aeruginosa system. […]

TraR [8] = molecular target: T3, TraR (Agrobacterium tumefaciens, UniProt P33905); assay: cell-based; type: cell-based; design: and Agrobacterium tumefaciens WCF (pCF372); endogenous in cells; host or cells: Agrobacterium tumefaciens WCF (pCF372)
T3 sequence (P33905 whole entry): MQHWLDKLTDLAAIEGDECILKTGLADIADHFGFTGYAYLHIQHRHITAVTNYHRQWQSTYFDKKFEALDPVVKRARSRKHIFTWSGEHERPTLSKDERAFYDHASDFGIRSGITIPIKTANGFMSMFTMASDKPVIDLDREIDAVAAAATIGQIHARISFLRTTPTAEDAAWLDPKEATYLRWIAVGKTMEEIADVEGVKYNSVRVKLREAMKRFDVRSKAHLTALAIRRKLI
Experimental: as §3

TraR [9] = molecular target: T3, TraR; settings: dose response; A. tumefaciens WCF (pCF372)
Experimental: as §3

LasR [10] = molecular target: T1, LasR; assay: LasR antagonism assay, E. coli DH5α (pJN105L+pSC11) β-galactosidase reporter strain; type: cell-based, P. aeruginosa; settings: thiolactone libraries, synthetic ligands tested at 10 μM
[11] = cited from earlier work

T1 sequence (P25084 whole entry): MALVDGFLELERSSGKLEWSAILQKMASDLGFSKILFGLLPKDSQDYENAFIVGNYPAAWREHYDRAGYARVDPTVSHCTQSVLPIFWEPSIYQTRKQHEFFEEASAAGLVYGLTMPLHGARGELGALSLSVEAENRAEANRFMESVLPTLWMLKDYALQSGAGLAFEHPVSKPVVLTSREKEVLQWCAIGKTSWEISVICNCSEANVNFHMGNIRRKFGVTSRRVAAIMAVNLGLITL

CCCCCCCCCC(=O)CC(=O)NCc1cccc([N+](=O)[O-])c1 [Compound 13]
Antagonist, percent inhibition compared to a positive control (LasR [1]; initial library (FIG. 4), E. coli DH5α (pJN105L+pSC11), negative values indicate agonist properties): 41.0% | Antagonist, percent inhibition compared to a positive control (LuxR [2]; initial library (FIG. 4), V. fischeri ESI 114 (Δ-LuxI)): 43.8% | Agonist, percent of activation compared to the positive control (LuxR [3]): 1.7% | Antagonist, percent inhibition compared to a positive control (LasR [4]): 16.8%

CCCCCCCCCC(=O)CC(=O)N[C@H]1CCSC1=O [Compound 1E]
LasR agonism, in words (LasR [5]; E. coli DH5α (pJN105L+pSC11)): strong agonists | EC50 (LasR [5]; dose response, E. coli DH5α (pJN105L+pSC11)): 0.092 µM | Act % (LasR [5]): 102% | inhibition at 10 µM (LasR [1]; read-out: Inhib %): -61% | IC50 (LuxR [2]; V. fischeri ESI 114 (Δ-LuxI)): 0.45 µM | inhibition at 10 µM (LuxR [2]; read-out: Inhib %): 91% | EC50 (LasR [6]; dose response, P. aeruginosa PA01 MW1 (pUM15)): 3.2 µM | Act % (LasR [6]): 127% | half-life [7]: 82.3 h | IC50 (TraR [8]; dose response, A. tumefaciens WCF (pCF372)): 1.8 µM | inhibition at 10 µM (TraR [8]; read-out: Inhib %): 51%

CCCCCC(=O)CC(=O)N[C@H]1CCSC1=O [Compound 24E]
Act % (LasR [5]): 0% | IC50 (LuxR [2]; V. fischeri ESI 114 (Δ-LuxI)): 0.35 µM | Inhib % (LuxR [2]; thiolactone libraries, V. fischeri, synthetic ligands tested at 10 μM): 99% | EC50 (TraR [9]): 20 µM | Act % (LasR [6]): 3% | Inhib % (TraR [8]; thiolactone libraries, A. tumefaciens, synthetic ligands tested at 10 μM): −89% | Inhib % (LasR [10]): −30%

CCCCCCCCCC(=O)CC(=O)N[C@H]1CCOC1=O [OdDHL, 3-oxo-dodecanoyal homoserine lactone]
hydrolysis half-life ([11]; previous experiments, NMR in deuterated buffers, 50% solution of DMSO): approximately two | racemization of the chiral center ([11]; previous experiments, over the course of a week): less than 5% | half-life ([11]; previous literature, growth media at 37° C.): approximately two | half-life [7]: 48.2 h

From patent US9758472B2, “Non-lactone carbocyclic and heterocyclic antagonists and agonists of bacterial quorum sensing” (WISCONSIN ALUMNI RESEARCH FOUNDATION, priority 2009, dated 2017)
